Values belong to the molecule of their own block, whether it stands above or below them.
Experiments:
[1] = biological target: T1, eucaryotic NAD cyclases of this invention (example: Aplysia californica NAD cyclase) (Aplysia californica, UniProt P29241); test: Resistance of NAD cyclase to inhibitors of eucaryotic NADases; assay type: biochemical; details: for inhibition of NAD cyclase by inhibitor: concentration not given
T1 sequence (P29241 25-282): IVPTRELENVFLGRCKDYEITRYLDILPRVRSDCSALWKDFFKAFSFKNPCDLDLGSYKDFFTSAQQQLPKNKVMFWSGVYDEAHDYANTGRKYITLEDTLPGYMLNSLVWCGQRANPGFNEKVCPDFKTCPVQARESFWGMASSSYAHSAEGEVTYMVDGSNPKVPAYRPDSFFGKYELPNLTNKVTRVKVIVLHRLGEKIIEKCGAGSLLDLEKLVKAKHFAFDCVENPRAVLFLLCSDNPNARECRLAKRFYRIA

[2] = biological target: T2, Aplysia californica NAD cyclase (ovotestis NADase), purified, wild type (Aplysia californica, UniProt P29241); test: NAD cyclase velocity vs. NAD concentration ([14C]-nicotinamide release); assay type: biochemical
T2 construct: from tissue; host or cells: ovotestis (Aplysia)
T2 sequence (P29241 25-282): T1 sequence (P29241 25-282)
Protocol: (§1) Referring to FIG. 4, various concentrations (0.05 to 5.0 mM) of [carbonyl-^14 C]NAD (specific activity=1.6 nCi/nmol) and 5×10^-9 M ovotestis NADase were incubated in 300 mM potassium phosphate buffer (pH 7.0) at 30° C. The amount of NAD cleaved during the incubation period was determined by measuring the amount of [^14 C]-nicotinamide produced. The data was fitted to the equation f=a+b*exp(-c*x) using a nonlinear curve fitting program (SigmaPlot, version 4.0). The estimated Km of the NAD Cyclase is 0.7 mM and the Vmax is approximately 32 nmoles/minute/35 ng enzyme. This corresponds to a turnover rate of about 27,000 moles NAD/minute/mole of NAD Cyclase at 30° C.

[3] = system: rat liver NAD glycohydrolase; details: Moss et al., J. Biol. Chem. 257:5755-5759, 1982; cited from earlier work
[4] = substrate: NC(=O)c1ccc[n+]([C@@H]2O[C@H](COP(=O)([O-])OP(=O)(O)OC[C@H]3O[C@@H](n4cnc5c(N)ncnc54)[C@H](O)[C@@H]3O)[C@@H](O)[C@H]2O)c1; test: NAD cyclase velocity vs. NAD concentration ([14C]-nicotinamide release); assay type: biochemical, Aplysia californica; details: other: 0.05 to 5.0 mM [carbonyl-14C]NAD, 5x10^-9 M enzyme, 300 mM potassium phosphate pH 7.0, 30° C., estimated by nonlinear curve fit
Protocol: as §1

Molecule: NC(=O)c1ccc[n+]([C@@H]2O[C@H](COP(=O)([O-])OP(=O)(O)OC[C@H]3O[C@@H](n4cnc5c(N)ncnc54)[C@H](O)[C@@H]3O)[C@@H](O)[C@H]2O)c1 [NAD, nicotinamide adenine dinucleotide]
Vmax ([2]; 300 mM potassium phosphate pH 7.0, 30° C.): approximately 32 nmoles/minute/35 ng enzyme | turnover rate ([2]; at 30° C., corresponds to Vmax): about 27,000 moles NAD/minute/mole of NAD Cyclase | Km [3]: ~18 µM

B1: Aplysia californica NAD cyclase (ovotestis NADase), purified, wild type (Aplysia californica) (protein)
chain: T1 sequence (P29241 25-282)
notes: 5×10^-9 M ovotestis NADase were incubated in 300 mM potassium phosphate buffer; from tissue; host or cells: ovotestis (Aplysia)
Km [4]: 700 µM

Other lines, results leading:

inhibition of NAD cyclase by DTT ([1]; 1 mM DTT): resistant
Molecule: O[C@H](CS)[C@H](O)CS (racemic) [DTT, dithiothreitol]

inhibition of NAD cyclase by inhibitor [1]: resistant
Molecule: NNC(=O)c1ccncc1 [isonicotinic acid hydrazide]

inhibition of NAD cyclase by inhibitor [1]: resistant
Molecule: CC(=O)c1ccc[n+]([C@@H]2O[C@H](COP(=O)([O-])OP(=O)(O)OC[C@H]3O[C@@H](n4cnc5c(N)ncnc54)[C@H](O)[C@@H]3O)[C@@H](O)[C@H]2O)c1 [3-acetylpyridine adenine dinucleotide]

Source: US5393667A, “Eucaryotic NAD cyclases” (priority 1993, dated 1995)
